Assay results taken from patent US20090221642A1, “MUSCARINIC RECEPTOR AGONISTS, COMPOSITIONS, METHODS OF TREATMENT THEREOF, AND PROCESSES FOR PREPARATION THEREOF-176” (AstraZeneca AB, priority 2008, published 2009).

Molecular target: T1, hM1 (human Muscarinic receptor subtype 1) (Homo sapiens, UniProt P11229)
T1 construct: expressed in transfected cells; host or cells: CHO cells (Chinese hamster ovary cells, ATCC)
T1 sequence (P11229 1-460): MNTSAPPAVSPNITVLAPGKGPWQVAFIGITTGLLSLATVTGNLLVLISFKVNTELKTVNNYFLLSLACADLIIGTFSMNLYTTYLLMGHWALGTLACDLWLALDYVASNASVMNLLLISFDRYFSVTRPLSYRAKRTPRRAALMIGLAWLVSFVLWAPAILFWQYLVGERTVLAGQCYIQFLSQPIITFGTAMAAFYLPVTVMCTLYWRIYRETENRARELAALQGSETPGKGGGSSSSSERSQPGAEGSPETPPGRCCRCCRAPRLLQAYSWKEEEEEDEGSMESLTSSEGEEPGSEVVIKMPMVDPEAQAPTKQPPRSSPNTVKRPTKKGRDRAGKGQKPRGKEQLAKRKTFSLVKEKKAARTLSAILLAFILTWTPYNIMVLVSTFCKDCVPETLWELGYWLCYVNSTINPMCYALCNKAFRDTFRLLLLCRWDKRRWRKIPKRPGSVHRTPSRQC
Test: Human M1 calcium mobilization FLIPR assay
Format: cell-based
Conditions: hM1 expressed in CHO cells, intracellular Ca2+ release, read-out: hM1 EC50
Experimental: Human M1, rat M1, human M3 and human M5 Calcium Mobilization FLIPR™ Assay
The compound activity in the present invention (EC50 or IC50) is measured using a 384 plate-based imaging assay that monitors drug induced intracellular Ca^2+ release in whole cells. Activation of hM1 (human Muscarinic receptor subtype 1, gene bank access NM_000738), rM1 (rat Muscarinic receptor subtype 1, gene bank access NM_080773), hM3 (human Muscarinic receptor subtype 3, gene bank access NM_000740NM_000740) and hM5 (human Muscarinic receptor subtype 5, gene bank access NM_0121258), receptors expressed in CHO cells (Chinese hamster ovary cells, ATCC) is quantified in a Molecular Devices FLIPR II™ instrument as an increase in fluorescent signal. Inhibition of hM3 and hM5 by compounds is determined by the decrease in fluorescent signal in response to 2 nM acetylcholine activation.
Prior to experiment, the cell culture medium is removed from the plates by inversion. […] Plates are incubated at 37° C. for 60 minutes prior to start the experiment. The incubation is terminated by washing the cells four times in assay buffer, leaving a residual 25 μl buffer per well. Cell plates are then transferred to the FLIPR, ready for compound additions.
The day of experiment, acetylcholine and compounds are diluted in assay buffer in three-fold concentration range (10 points serial dilution) for addition by FLIPR instrument. For all calcium assays, a baseline reading is taken for 10 seconds followed by the addition of 12.5 μl of compounds, resulting in a total well volume of 37.5 μl. Data is collected every second for 60 pictures and then every 6 seconds for 20 pictures prior to the addition of agonist. For hM3 and hM5, before agonist addition, a second baseline reading is taken for 10 seconds followed by the addition of 12.5 μl of agonist or buffer, producing a final volume of 50 μl. After agonist stimulation, the FLIPR continues to collect data every second for 60 pictures and then every 6 seconds for 20 pictures. The fluorescence emission is read using filter 1 (emission 510-570 nm) by the FLIPR on board CCD camera.
Calcium mobilization output data are calculated as the maximal relative fluorescence unit (RFU) minus the minimal value for both compound and agonist reading frame (except for hM1 and rM1 using only the maximal RFU). Data are analyzed using sigmoidal fits of a non-linear curve-fitting program (XLfit version 4.2.2 Excel add-in version 4.2.2 build 18 math 1Q version 2.1.2 build 18). All pEC50 and plC50 values are reported as arithmetic means ±standard error of mean of ‘n’ independent experiments.

## COC(=O)N1CCC(C)(N2CCC(n3c(=O)[nH]c4ccccc43)CC2)C1 (racemic) [Example 2, methyl 3-methyl-3-(4-(2-oxo-2,3-dihydro-1H-benzo[d]imidazol-1-yl)piperidin-1-yl)pyrrolidine-1-carboxylate]
  EC50: 13 nM

## CCOC(=O)N1CCC(C)(N2CCC(n3c(=O)[nH]c4cc(F)ccc43)CC2)C1 (single isomer, unassigned) [Example 6, ethyl 3-(4-(5-fluoro-2-oxo-2,3-dihydro-1H-benzo[d]imidazol-1-yl)piperidin-1-yl)-3-methylpyrrolidine-1-carboxylate]
  EC50: < 1.4 nM

## CCOC(=O)N1CCC(C)(N2CCC(n3c(=O)[nH]c4cc(C)ccc43)CC2)C1 (single isomer, unassigned) [Example 12, ethyl 3-methyl-3-(4-(5-methyl-2-oxo-2,3-dihydro-1H-benzo[d]imidazol-1-yl)piperidin-1-yl)pyrrolidine-1-carboxylate]
  EC50: 10.1 nM

## Cc1ccc2c(c1)[nH]c(=O)n2C1CCN(C2(C)CCN(C(=O)OC(C)C)C2)CC1 (single isomer, unassigned) [Example 14, isopropyl 3-methyl-3-(4-(5-methyl-2-oxo-2,3-dihydro-1H-benzo[d]imidazol-1-yl)piperidin-1-yl)pyrrolidine-1-carboxylate]
  EC50: 48.3 nM

## CC#CCOC(=O)N1CCC(C)(N2CCC(n3c(=O)[nH]c4cc(C)ccc43)CC2)C1 (single isomer, unassigned) [Example 21, but-2-ynyl 3-methyl-3-(4-(5-methyl-2-oxo-2,3-dihydro-1H-benzo[d]imidazol-1-yl)piperidin-1-yl)pyrrolidine-1-carboxylate]
  EC50: 12.5 nM

## CC#CCOC(=O)N1CCC(C)(N2CCC(n3c(=O)[nH]c4cc(F)ccc43)CC2)C1 (single isomer, unassigned) [Example 22, but-2-ynyl 3-(4-(5-fluoro-2-oxo-2,3-dihydro-1H-benzo[d]imidazol-1-yl)piperidin-1-yl)-3-methylpyrrolidine-1-carboxylate]
  EC50: 2.8 nM

## COC(=O)N1CCC(C)(N2CCC(n3c(=O)[nH]c4cc(F)ccc43)CC2)C1 (single isomer, unassigned) [Example 23, methyl 3-(4-(5-fluoro-2-oxo-2,3-dihydro-1H-benzo[d]imidazol-1-yl)piperidin-1-yl)-3-methylpyrrolidine-1-carboxylate]
  EC50: 9.4 nM

## C#CCOC(=O)N1CCC(C)(N2CCC(n3c(=O)[nH]c4cc(F)ccc43)CC2)C1 (single isomer, unassigned) [Example 25, prop-2-ynyl 3-(4-(5-fluoro-2-oxo-2,3-dihydro-1H-benzo[d]imidazol-1-yl)piperidin-1-yl)-3-methylpyrrolidine-1-carboxylate]
  EC50: 1.8 nM

## Cc1ccc2[nH]c(=O)n(C3CCN(C4(C)CCN(C(=O)OCCF)C4)CC3)c2c1 (single isomer, unassigned) [Example 26, 2-fluoroethyl 3-methyl-3-(4-(6-methyl-2-oxo-2,3-dihydro-1H-benzo[d]imidazol-1-yl)piperidin-1-yl)pyrrolidine-1-carboxylate]
  EC50: 7.8 nM

## Cc1ccc2c(c1)[nH]c(=O)n2C1CCN(C2(C)CCN(C(=O)OCCF)C2)CC1 (single isomer, unassigned) [Example 27, 2-fluoroethyl 3-methyl-3-(4-(5-methyl-2-oxo-2,3-dihydro-1H-benzo[d]imidazol-1-yl)piperidin-1-yl)pyrrolidine-1-carboxylate]
  EC50: 10.8 nM

## CC1(N2CCC(n3c(=O)[nH]c4ccccc43)CC2)CCN(C(=O)OCCF)C1 (single isomer, unassigned) [Example 31, 2-fluoroethyl 3-methyl-3-(4-(2-oxo-2,3-dihydro-1H-benzo[d]imidazol-1-yl)piperidin-1-yl)pyrrolidine-1-carboxylate]
  EC50: 13.1 nM

## CC1(N2CCC(n3c(=O)[nH]c4ccccc43)CC2)CCN(C(=O)OCCF)C1 (single isomer, unassigned) [Example 32, 2-fluoroethyl 3-methyl-3-(4-(2-oxo-2,3-dihydro-1H-benzo[d]imidazol-1-yl)piperidin-1-yl)pyrrolidine-1-carboxylate]
  EC50: 52.1 nM

## CC#CCOC(=O)N1CCC(C)(N2CCC(n3c(=O)[nH]c4ccccc43)CC2)C1 (single isomer, unassigned) [Example 33, but-2-ynyl 3-methyl-3-(4-(2-oxo-2,3-dihydro-1H-benzo[d]imidazol-1-yl)piperidin-1-yl)pyrrolidine-1-carboxylate]
  EC50: 1.7 nM

## CC#CCOC(=O)N1CCC(C)(N2CCC(n3c(=O)[nH]c4ccccc43)CC2)C1 (single isomer, unassigned) [Example 34, but-2-ynyl 3-methyl-3-(4-(2-oxo-2,3-dihydro-1H-benzo[d]imidazol-1-yl)piperidin-1-yl)pyrrolidine-1-carboxylate]
  EC50: 14.7 nM

## C#CCOC(=O)N1CCC(C)(N2CCC(n3c(=O)[nH]c4cc(F)ccc43)CC2)C1 (single isomer, unassigned) [Example 36, prop-2-ynyl 3-(4-(5-fluoro-2-oxo-2,3-dihydro-1H-benzo[d]imidazol-1-yl)piperidin-1-yl)-3-methylpyrrolidine-1-carboxylate]
  EC50: 32 nM

## Cc1ccc2[nH]c(=O)n(C3CCN(C4(C)CCN(C(=O)OC(C)C)C4)CC3)c2c1 (single isomer, unassigned) [Example 39, isopropyl 3-methyl-3-(4-(6-methyl-2-oxo-2,3-dihydro-1H-benzo[d]imidazol-1-yl)piperidin-1-yl)pyrrolidine-1-carboxylate]
  EC50: 26.7 nM

## Cc1ccc2[nH]c(=O)n(C3CCN(C4(C)CCN(C(=O)OC(C)C)C4)CC3)c2c1 (single isomer, unassigned) [Example 40, isopropyl 3-methyl-3-(4-(6-methyl-2-oxo-2,3-dihydro-1H-benzo[d]imidazol-1-yl)piperidin-1-yl)pyrrolidine-1-carboxylate]
  EC50: 36.3 nM

## C#CCOC(=O)N1CCC(C)(N2CCC(n3c(=O)[nH]c4cc(C)ccc43)CC2)C1 (single isomer, unassigned) [Example 44, prop-2-ynyl 3-methyl-3-(4-(5-methyl-2-oxo-2,3-dihydro-1H-benzo[d]imidazol-1-yl)piperidin-1-yl)pyrrolidine-1-carboxylate]
  EC50: < 2.3 nM

## COC(=O)N1CCC(C)(N2CCC(n3c(=O)[nH]c4ccc(C)cc43)CC2)C1 (single isomer, unassigned) [Example 47, methyl 3-methyl-3-(4-(6-methyl-2-oxo-2,3-dihydro-1H-benzo[d]imidazol-1-yl)piperidin-1-yl)pyrrolidine-1-carboxylate]
  EC50: < 3.2 nM

## CCOC(=O)N1CCC(C)(N2CCC(N3C(=O)Cc4ccc(C)cc43)CC2)C1 (single isomer, unassigned) [Example 70, ethyl 3-methyl-3-(4-(6-methyl-2-oxoindolin-1-yl)piperidin-1-yl)pyrrolidine-1-carboxylate]
  EC50: 9.8 nM

## COC(=O)N1CCC(C)(N2CCC(N3C(=O)Cc4ccc(F)cc43)CC2)C1 (single isomer, unassigned) [Example 76, methyl 3-(4-(6-fluoro-2-oxoindolin-1-yl)piperidin-1-yl)-3-methylpyrrolidine-1-carboxylate]
  EC50: 40.1 nM

## CCOC(=O)N1CCC(C)(N2CCC(N3C(=O)Cc4cc(F)ccc43)CC2)C1 (single isomer, unassigned) [Example 80, ethyl 3-(4-(5-fluoro-2-oxoindolin-1-yl)piperidin-1-yl)-3-methylpyrrolidine-1-carboxylate]
  EC50: 69.4 nM

## CCOC(=O)N1CCC(C)(N2CCC(N3C(=O)Cc4cc(F)c(C)cc43)CC2)C1 (single isomer, unassigned) [Example 82, ethyl 3-(4-(5-fluoro-6-methyl-2-oxoindolin-1-yl)piperidin-1-yl)-3-methylpyrrolidine-1-carboxylate]
  EC50: 8.7 nM
